IC50 and viability, T/C data for four compounds are collected here from PubChem BioAssay AID1845203 (Molecular Pharmacology Branch, DTP, NCI, 2023).

SMILES strings stand for the structures. pIC50: −log10 of the molar value. Several values for one entry are separate records, joined by “and”; a condition that tells them apart may be missing. Identical values can stand only once. Bounds are passed on as bounds.

In this test the test system is G-401 tumor spheroids, viability % test/control. As to the kind of experiment: Anticancer human tumor G-401 cell line growth inhibition.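 On all read-outs here: spheroids exposed to compound for 7 days.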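 On viability, T/C: 100% = DMSO vehicle-treated spheroids.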 Conditions: spheroids with HUVEC and MSC; for viability, T/C: stronger effect = lower value. An outline of the steps:
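Single agents and combinations were tested on spheroids built from tumor cells plus HUVEC and hMSC, at half-log dilutions starting at or near clinical Cmax, else 10 microM; final DMSO 0.25% (v/v).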

The mark [1] stands for this setting: curve of first compound, second compound 30 pM.
Where [2] appears, read: curve of first compound, second compound 94.9 pM.
[3] abbreviates: curve of first compound, second compound 0.0003 µM.
The mark [4] stands for this setting: curve of first compound, second compound 0.000949 µM.
Where [5] appears, read: curve of first compound, second compound 0.003 µM.

Turning to `Cn1ncnc1[C@H]1c2n[nH]c(=O)c3cc(F)cc(c23)N[C@@H]1c1ccc(F)cc1` + COc1cc2c(cc1O)CCNC21CSC2c3c(OC(C)=O)c(C)c4c(c3C(COC1=O)N1C(O)C3Cc5cc(C)c(OC)c(O)c5C(C21)N3C)OCO4, the pIC50 is 7.14 under setting [1]; greater than 8.02 under setting [2]; greater than 8.02 under setting [3]; greater than 8.02 under setting [4]; greater than 8.02 under setting [5]. The viability, T/C is 70.6% (second compound 30 pM, first compound 0.00949 µM); 62% (second compound 30 pM, first compound 0.03 µM); 46% (second compound 30 pM, first compound 0.0949 µM); 30.6% (second compound 30 pM, first compound 0.3 µM); 19.6% (second compound 30 pM, first compound 0.949 µM); 10.8% (second compound 30 pM, first compound 3 µM). Besides, the viability, T/C is 48.4% (second compound 94.9 pM, first compound 0.00949 µM); 47.3% (second compound 94.9 pM, first compound 0.03 µM); 34.1% (second compound 94.9 pM, first compound 0.0949 µM); 26.2% (second compound 94.9 pM, first compound 0.3 µM); 17.9% (second compound 94.9 pM, first compound 0.949 µM); 9.94% (second compound 94.9 pM, first compound 3 µM). The viability, T/C was 25.6% (second compound 0.0003 µM, first compound 0.00949 µM); 26.4% (second compound 0.0003 µM, first compound 0.03 µM); 21.5% (second compound 0.0003 µM, first compound 0.0949 µM); 19.1% (second compound 0.0003 µM, first compound 0.3 µM); 11.2% (second compound 0.0003 µM, first compound 0.949 µM); 7.83% (second compound 0.0003 µM, first compound 3 µM). For the same compound, the viability, T/C by setting is: (second compound 0.000949 µM, first compound 0.00949 µM) 6.63%; (second compound 0.000949 µM, first compound 0.03 µM) 5.61%; (second compound 0.000949 µM, first compound 0.0949 µM) 5.35%; (second compound 0.000949 µM, first compound 0.3 µM) 5.74%; (second compound 0.000949 µM, first compound 0.949 µM) 2.94%; (second compound 0.000949 µM, first compound 3 µM) 0.23%. For the same compound, the viability, T/C runs as follows: (second compound 0.003 µM, first compound 0.00949 µM) 0.15%; (second compound 0.003 µM, first compound 0.03 µM) 0.13%; (second compound 0.003 µM, first compound 0.0949 µM) 0.13%; (second compound 0.003 µM, first compound 0.3 µM) 0.15%; (second compound 0.003 µM, first compound 0.949 µM) 0.14%; (second compound 0.003 µM, first compound 3 µM) 0.21%.
In the case of `COc1cc2c(cc1O)CCNC21CSC2c3c(OC(C)=O)c(C)c4c(c3C(COC1=O)N1C(O)C3Cc5cc(C)c(OC)c(O)c5C(C21)N3C)OCO4` (configuration not stated), the viability, T/C is 99.4% [middle of 10 runs] (compound 30 pM), 38.9% [middle of 10 runs] (compound 0.0003 µM), 7.91% [middle of 10 runs] (compound 0.000949 µM) and 0.12% [middle of 5 runs] (compound 0.003 µM). The IC50 (compound alone, run of 12/12/2019) was 0.233 nM [middle of 10 runs].
Regarding `COc1cc(C)[nH]c(=O)c1CN1CCc2c(Cl)cc(C(OC)C3COC3)c(Cl)c2C1=O` (configuration not stated) + COc1cc2c(cc1O)CCNC21CSC2c3c(OC(C)=O)c(C)c4c(c3C(COC1=O)N1C(O)C3Cc5cc(C)c(OC)c(O)c5C(C21)N3C)OCO4, the pIC50 runs as follows: under setting [1], 6.97; under setting [2], 7.06; under setting [3], greater than 7.50; under setting [4], greater than 7.50; under setting [5], greater than 7.50. The viability, T/C was 83.1% (second compound 30 pM, first compound 0.0316 µM); 50.9% (second compound 30 pM, first compound 0.1 µM); 33.9% (second compound 30 pM, first compound 0.316 µM); 28.1% (second compound 30 pM, first compound 1 µM); 26.9% (second compound 30 pM, first compound 3.16 µM); 26.1% (second compound 30 pM, first compound 10 µM). Further, the viability, T/C (second compound 94.9 pM, first compound 0.0316 µM) was 74.1%; the viability, T/C (second compound 94.9 pM, first compound 0.1 µM) was 44.6%; the viability, T/C (second compound 94.9 pM, first compound 0.316 µM) was 36.1%; the viability, T/C (second compound 94.9 pM, first compound 1 µM) is 27.3%; the viability, T/C (second compound 94.9 pM, first compound 3.16 µM) is 22.7%; the viability, T/C (second compound 94.9 pM, first compound 10 µM) was 22.8%. In addition, the viability, T/C is 33.1% (second compound 0.0003 µM, first compound 0.0316 µM); 30.2% (second compound 0.0003 µM, first compound 0.1 µM); 23% (second compound 0.0003 µM, first compound 0.316 µM); 20.4% (second compound 0.0003 µM, first compound 1 µM); 18.4% (second compound 0.0003 µM, first compound 3.16 µM); 18.1% (second compound 0.0003 µM, first compound 10 µM). Moreover, the viability, T/C was 4.72% (second compound 0.000949 µM, first compound 0.0316 µM); 5.11% (second compound 0.000949 µM, first compound 0.1 µM); 3.78% (second compound 0.000949 µM, first compound 0.316 µM); 4% (second compound 0.000949 µM, first compound 1 µM); 5.07% (second compound 0.000949 µM, first compound 3.16 µM); 3.13% (second compound 0.000949 µM, first compound 10 µM). Besides, the viability, T/C (second compound 0.003 µM, first compound 0.0316 µM) is 0.12%; the viability, T/C (second compound 0.003 µM, first compound 0.1 µM) was 0.12%; the viability, T/C (second compound 0.003 µM, first compound 0.316 µM) is 0.11%; the viability, T/C (second compound 0.003 µM, first compound 1 µM) is 0.11%; the viability, T/C (second compound 0.003 µM, first compound 3.16 µM) was 0.11%; the viability, T/C (second compound 0.003 µM, first compound 10 µM) was 0.18%.
With `CNCc1ccc(-c2cc(-c3nc(-c4ccc(S(=O)(=O)C(C)C)cc4)cnc3N)on2)cc1`, the viability, T/C was 97.3% and 93.8% and 100% (compound 0.00949 µM); 102% and 98.4% and 99.4% (compound 0.03 µM); 103% and 105% and 101% (compound 0.0949 µM); 96.6% and 96% and 97.9% (compound 0.3 µM); 71.3% and 64% and 69.4% (compound 0.949 µM); 41.7% and 38.1% and 39.8% (compound 3 µM). In addition, the pIC50 (curve of compound) was 5.66 and 5.75 and 5.69.
